What was measured:
Assay type in all cases: ADME, organism-based
[1] = Plasma concentration in C57BL/6J mouse at 30 mg/kg, po measured at 2 hrs post dose by LC-MS/MS analysis
[2] = Volume of distribution at steady state in overnight fasted C57BL/6J mouse at 5 mg/kg, iv by LC-MS/MS analysis; settings: in vivo, read-out: Vdss
[3] = AUClast in overnight fasted C57BL/6J mouse at 20 mg/kg, po administered via gavage after 24 hrs by LC-MS/MS analysis; set-up: dose 20 mg/kg, time < 24 hr, route oral; settings: in vivo
[4] = Bioavailability in overnight fasted C57BL/6J mouse at 5 mg/kg, iv by LC-MS/MS analysis; settings: in vivo
[5] = Cmax in overnight fasted C57BL/6J mouse at 20 mg/kg, po administered via gavage by LC-MS/MS analysis; set-up: dose 20 mg/kg, route oral; settings: in vivo
[6] = Clearance in overnight fasted C57BL/6J mouse at 5 mg/kg, iv by LC-MS/MS analysis; settings: in vivo
[7] = Half life in overnight fasted C57BL/6J mouse at 20 mg/kg, po administered via gavage by LC-MS/MS analysis; settings: in vivo

## COc1cc(C2(C)CCCc3nc(SCc4ncccn4)n(-c4ccc(F)cc4)c32)ccc1F (stereo not given)
[1]
  concentration at 2 h: 280 nM
[2]
  Vd: 0.856 L/kg
[3]
  AUC(0-t) at 24 h: 785 ng·h/mL
[4]
  bioavailability: 10.8%
[5]
  Cmax: 913 ng/mL
[6]
  clearance: 45.3 mL/min/kg

## COc1cc(C2(C)CCCc3nc(SCc4c(F)cc(OCCOCCOCCN(C)C)cc4F)n(-c4ccc(F)cc4)c32)ccc1Cl (stereo not given)
[1]
  concentration at 2 h: 1610 nM
[2]
  Vd: 1.63 L/kg
[3]
  AUC(0-t) at 24 h: 2540 ng·h/mL
[4]
  bioavailability: 13.9%
[5]
  Cmax: 918 ng/mL
[6]
  clearance: 18.1 mL/min/kg
[7]
  half-life: 79.8 min

## COc1cc(C2(C)CCCc3nc(SCc4ncccn4)n(-c4ccc(F)cc4)c32)ccc1Cl (stereo not given)
[1]
  concentration at 2 h: 200 nM
[2]
  Vd: 1.43 L/kg
[3]
  AUC(0-t) at 24 h: 527 ng·h/mL
[4]
  bioavailability: 9.44%
[5]
  Cmax: 507 ng/mL
[6]
  clearance: 58.4 mL/min/kg

## COc1cc(C2(C)CCCc3nc(SCc4c(F)ccc(OCCOCCOCCN(C)C)c4F)n(-c4ccc(F)cc4)c32)ccc1Cl (stereo not given)
[1]
  concentration at 2 h: 760 nM

## COc1cc(C2(C)CCCc3nc(SCc4c(F)cc(OCCOCCOCCN(C)C)cc4F)n(-c4ccc(F)cc4)c32)ccc1F (stereo not given)
[1]
  concentration at 2 h: 2110 nM
[2]
  Vd: 0.818 L/kg
[3]
  AUC(0-t) at 24 h: 7160 ng·h/mL
[4]
  bioavailability: 22.1%
[5]
  Cmax: 2410 ng/mL
[6]
  clearance: 10.2 mL/min/kg
[7]
  half-life: 120 min

## COc1ccc(C2(C)CCCc3nc(SCc4ncccn4)n(-c4ccc(F)cc4)c32)cc1OC (stereo not given)
[1]
  concentration at 2 h: 100 nM

## COc1ccc(C2(C)CCCc3nc(SCc4c(F)cc(OCCOCCOCCN(C)C)cc4F)n(-c4ccc(F)cc4)c32)cc1OC (stereo not given)
[1]
  concentration at 2 h: 2210 nM
[2]
  Vd: 0.947 L/kg
[3]
  AUC(0-t) at 24 h: 9350 ng·h/mL
[4]
  bioavailability: 27.5%
[5]
  Cmax: 2890 ng/mL
[6]
  clearance: 9.68 mL/min/kg
[7]
  half-life: 126 min
